Experimental data taken from US20230114728A1 (Venatorx Pharmaceuticals, Inc., priority 2019, published 2023).
Converted amounts (≈) assume the structure as drawn.

Test system: A. baumannii IL123 (ABΔ3-ARAEcPore)
Test: Broth microdilution MIC in iron-depleted CAMHB (IDM)
Assay type: cell-based
Settings: Acinetobacter baumannii, read-out: Minimum Inhibitory Concentration, IL-2123
Method in brief: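 IDM = CAMHB stripped with Chelex 100 resin 2 h, supplemented CaCl2 82.5 mg/L, MgCl2 94.1 mg/L, ZnSO4 10 μM, pH 7.3. 2-fold compound dilutions; 2-8×10^5 CFU/mL; 37° C; Acinetobacter 20-24 h, Pseudomonas 16-20 h. Visual MIC.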

Structure (SMILES) | MIC
O=C(NCCCN1CCN(C(=O)NC(C(=O)N[C@H]2Cc3cccc(C(=O)O)c3OB2O)c2ncc(O)cc2F)C(=O)C1=O)c1ccc(O)c(O)c1Cl (stereo partly drawn) [Example 1, (3R)-3-(2-(4-(3-(2-chloro-3,4-dihydroxybenzamido)propyl)-2,3-dioxopiperazine-1-carboxamido)-2-(3-fluoro-5-hydroxypyridin-2-yl)acetamido)-2-hydroxy-3,4-dihydro-2H-benzo[e][1,2]oxaborinine-8-carboxylic acid] | 0.5 to 1 µg/mL (≈ 0.673 to 1.35 µM)
Nc1nc(C(NC(=O)N2CCN(CCNC(=O)c3ccc(O)c(O)c3Cl)C(=O)C2=O)C(=O)N[C@H]2Cc3ccc(F)c(C(=O)O)c3OB2O)c(F)s1 (stereo partly drawn) [Example 4, (3R)-3-(2-(2-amino-5-fluorothiazol-4-yl)-2-(4-(2-(2-chloro-3,4-dihydroxybenzamido)ethyl)-2,3-dioxopiperazine-1-carboxamido)acetamido)-7-fluoro-2-hydroxy-3,4-dihydro-2H-benzo[e][1,2]oxaborinine-8-carboxylic acid] | 32 to 64 µg/mL (≈ 42.6 to 85.1 µM)
O=C(NCCN1CCN(C(=O)NC(C(=O)N[C@H]2Cc3ccc(F)c(C(=O)O)c3OB2O)c2ncc(O)cc2F)C(=O)C1=O)c1c(F)cc(O)c(O)c1Cl (stereo partly drawn) [Example 5, (3R)-3-(2-(4-(2-(2-chloro-6-fluoro-3,4-dihydroxybenzamido)ethyl)-2,3-dioxopiperazine-1-carboxamido)-2-(3-fluoro-5-hydroxypyridin-2-yl)acetamido)-7-fluoro-2-hydroxy-3,4-dihydro-2H-benzo[e][1,2]oxaborinine-8-carboxylic acid] | 2 to 4 µg/mL (≈ 2.61 to 5.23 µM)
Nc1nc(/C(=N/OC[C@H](NC(=O)c2ccc(O)c(O)c2Cl)C(=O)O)C(=O)N[C@H]2Cc3cccc(C(=O)O)c3OB2O)cs1 [Example 6, (R)-3-((Z)-2-(2-aminothiazol-4-yl)-2-(((S)-2-carboxy-2-(2-chloro-3,4-dihydroxybenzamido)ethoxy)imino)acetamido)-2-hydroxy-3,4-dihydro-2H-benzo[e][1,2]oxaborinine-8-carboxylic acid] | 32 to 64 µg/mL (≈ 50.5 to 101 µM)
